Laboratory results from the NIST ThermoML archive (doi:10.1021/acs.jced.7b00316).
± gives the expanded uncertainty stated by the source.

What was measured:
[1] = Molar enthalpy of transition or fusion; settings: Crystal; DSC
[2] = Crystal; DTA

Molar enthalpy of transition or fusion [1]: 4.79 ± 0.217 kcal/mol
Normal melting temperature [2]: 151.11 ± 1.1 °C
SMILES: On1nnc2ccccc21 [1-benzotriazolol]
